Laboratory results published in ChEMBL document CHEMBL1201862, “PubChem BioAssay data set” (2004).
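Tested at 5 concentrations; 48 h exposure; 96-well plates; endpoints linearly interpolated, else capped at highest concentration. GI50 is the concentration that inhibits growth by half.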 The source made the active and inactive calls. Rule as the data show it: active = GI50 up to about 1.1 µM and inactive = higher.

Key:
Experiment in all cases: NCI tumour cell line growth inhibition, 48 h
[1] = tested on: SF-295
[2] = tested on: TK-10
[3] = tested on: HCT-116
[4] = tested on: RPMI-8226
[5] = tested on: NCI/ADR-RES
[6] = tested on: SN12C
[7] = tested on: A498
[8] = tested on: MDA-N
[9] = tested on: SK-MEL-2
[10] = tested on: CAKI-1
[11] = tested on: 786-0
[12] = tested on: IGROV-1
[13] = tested on: NCI-H522
[14] = tested on: K562
[15] = tested on: BT-549
[16] = tested on: M14
[17] = tested on: LOX IMVI
[18] = tested on: CCRF-CEM
[19] = tested on: HOP-62
[20] = tested on: UACC-62

Measured: GI50

O=C1Nc2ccccc2[C@]12C[C@H]2c1ccccn1
inactive: [1] > 100 µM | [2] > 100 µM | [3] > 100 µM | [4] > 100 µM | [5] > 100 µM | [6] > 100 µM | [7] > 100 µM | [8] > 100 µM | [9] > 100 µM | [10] > 100 µM | [11] > 100 µM | [12] > 100 µM | [13] > 100 µM | [14] > 100 µM | [15] > 100 µM | [16] > 100 µM | [17] > 100 µM | [18] > 100 µM | [19] > 100 µM | [20] > 100 µM
